In patent US11655235B2, “Pyrrolidine and piperidine compounds” (YUHAN CORPORATION, priority 2019, dated 2023):

Key:
Format in all cases: biochemical
Recombinant human FAP [1] = target: T1, Recombinant human FAP (Homo sapiens, UniProt Q12884); test: FAP FRET assay, FGF21-sequence FRET peptide substrate; settings: FRET peptide with human FGF21 sequence, 6 μM, 37° C.
T1 construct: purchased R&D systems
T1 sequence (Q12884 1-760): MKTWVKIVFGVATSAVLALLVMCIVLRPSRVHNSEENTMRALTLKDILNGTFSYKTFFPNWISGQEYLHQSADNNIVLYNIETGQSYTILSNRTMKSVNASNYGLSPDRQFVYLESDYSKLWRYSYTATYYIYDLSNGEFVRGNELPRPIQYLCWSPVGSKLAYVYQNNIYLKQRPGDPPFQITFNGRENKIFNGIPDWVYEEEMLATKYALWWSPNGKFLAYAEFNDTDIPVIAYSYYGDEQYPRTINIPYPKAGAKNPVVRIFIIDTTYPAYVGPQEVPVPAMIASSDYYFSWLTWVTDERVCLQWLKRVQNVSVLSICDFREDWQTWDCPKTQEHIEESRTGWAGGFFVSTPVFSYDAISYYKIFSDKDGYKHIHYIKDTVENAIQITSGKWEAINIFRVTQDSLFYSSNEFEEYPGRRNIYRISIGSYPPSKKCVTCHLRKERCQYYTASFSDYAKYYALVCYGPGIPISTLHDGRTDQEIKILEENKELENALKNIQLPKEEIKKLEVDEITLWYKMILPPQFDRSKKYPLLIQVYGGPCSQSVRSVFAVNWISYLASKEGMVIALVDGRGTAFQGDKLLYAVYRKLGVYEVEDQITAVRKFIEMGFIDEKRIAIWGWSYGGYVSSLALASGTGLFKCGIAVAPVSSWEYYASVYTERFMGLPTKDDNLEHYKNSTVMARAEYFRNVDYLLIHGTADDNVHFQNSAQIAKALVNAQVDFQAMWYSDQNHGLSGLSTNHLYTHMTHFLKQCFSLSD
Outline: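 Recombinant human FAP, 10 ng per reaction, in 50 mM HEPES pH 7.2 with 150 mM NaCl, 0.1 mg/ml BSA, 1 mM EDTA; HyLite Fluor 488/QXL 520 FRET peptide of human FGF21 sequence at 6 μM final, ≤0.1% DMSO, 37° C. IC50 from 8-point curves by four-parameter logistic fit.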

DPP4 = DPP4 (Homo sapiens, UniProt P27487); test: DPP4 inhibition, fluorogenic substrate H-Gly-Pro-AMC; set-up: purchased R&D Systems; settings: recombinant human DPP4
recombinant human DPP7 = target: T2, recombinant human DPP7 (Homo sapiens, UniProt Q9UHL4); test: DPP7 inhibition, fluorogenic substrate Lys-Pro-AMC; settings: recombinant human DPP7
T2 construct: purchased R&D Systems
Description: (§1) The compounds according to the present technology were evaluated in terms of the inhibitory effect on the activity of dipeptidyl peptidases including FAP by using a substrate producing fluorescent substances upon enzymatic decomposition. The test was conducted at 25° C. to get a final reaction volume of 100 μL in a 96 black well plate. […] Briefly, the test compounds were dissolved in dimethyl sulfoxide (DMSO) at a concentration of 20 mM and then subjected to serial dilution, thereby creating an 8 point curve. As for the control group, a 6 point curve created by serial dilution of Talabostat in the same buffer solution was used. Fluorescence intensity was measured using a microplate reader (Flexstation3, Molecular Devices) under the wavelength condition exciting at 380 nm and reading the emission at 460 nm. The inhibitory effect of the test compounds was measured as a decrease (%) in the signal rate as compared to the control group without any inhibitor. Data was fixed to a logistic model with four variables and IC50 value was calculated using GraphPad Prism program. As for recombinant human DPP4 (R&D Systems), 25 mM tris (pH 8.0) buffer as a buffer solution and H-Gly-Pro-AMC (Bachem) as a substrate were used. As for recombinant human DPP7 (R&D Systems), 25 mM MES (pH 6.0) buffer as a buffer solution and Lys-Pro-AMC (Bachem) as a substrate were used. As for recombinant human DPP8 (PBS Bioscience), as a buffer solution, a 10 mM tris (pH 7.4) buffer comprising 10 mM of magnesium chloride and 0.05% of Tween 20, and Z-Ala-Pro-AMC (BPS Bioscience) as a substrate were used. As for recombinant human DPP9 (R&D Systems), a 25 mM tris (pH 8.0) buffer as a buffer solution and H-Gly-Pro-AMC (Bachem) as a substrate were used. As for recombinant human PREP (R&D System), as a buffer solution, a 25 mM tris (pH 7.5) buffer comprising 250 mM sodium chloride and 2.5 mM DTT (Dithiolthreitol), and Z-Gly-Pro-AMC (Bachem) as a substrate were used. The evaluation was made by using 10 ng of DPP4, PDD7, and PREP, 20 ng of DPP8, and 50 ng of DPP9 based on the final reaction. In the evaluation of DPP4, the test compounds were subjected to serial dilution in a buffer under the condition containing up to 0.1% of DMSO. In the evaluation of DPP7, DPP8, DPP9, and PREP, the test compounds were subjected to serial dilution in each buffer under the condition containing up to 0.5% of DMSO.

recombinant human PREP = target: T3, recombinant human PREP (Homo sapiens, UniProt P48147); test: PREP inhibition, fluorogenic substrate Z-Gly-Pro-AMC; settings: Inhibitory Activity (IC50, nM) PREP, recombinant human PREP
T3 construct: purchased R&D System
T3 sequence (P48147 1-710): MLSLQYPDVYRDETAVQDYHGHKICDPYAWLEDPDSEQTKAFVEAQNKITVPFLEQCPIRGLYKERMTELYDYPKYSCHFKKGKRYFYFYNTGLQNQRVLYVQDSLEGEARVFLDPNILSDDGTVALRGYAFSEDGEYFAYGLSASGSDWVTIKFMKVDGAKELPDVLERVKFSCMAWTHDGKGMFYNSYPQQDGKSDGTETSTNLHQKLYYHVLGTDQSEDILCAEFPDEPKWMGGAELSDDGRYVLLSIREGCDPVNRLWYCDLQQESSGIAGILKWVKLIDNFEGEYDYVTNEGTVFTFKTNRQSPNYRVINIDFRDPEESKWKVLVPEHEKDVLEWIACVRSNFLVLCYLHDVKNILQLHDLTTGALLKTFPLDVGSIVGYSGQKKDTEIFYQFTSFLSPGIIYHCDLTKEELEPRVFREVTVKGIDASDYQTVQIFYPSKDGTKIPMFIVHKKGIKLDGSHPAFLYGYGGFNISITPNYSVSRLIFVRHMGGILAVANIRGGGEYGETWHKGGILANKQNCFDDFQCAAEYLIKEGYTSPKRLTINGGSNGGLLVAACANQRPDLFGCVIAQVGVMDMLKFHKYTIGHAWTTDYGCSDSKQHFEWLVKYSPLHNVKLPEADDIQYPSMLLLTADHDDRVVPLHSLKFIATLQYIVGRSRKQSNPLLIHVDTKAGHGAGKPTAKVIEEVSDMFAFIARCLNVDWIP
Description: as §1

Recombinant human FAP [2] = target: T1, Recombinant human FAP; test: FAP inhibition, fluorogenic substrate Z-Gly-Pro-AMC; settings: recombinant human FAP, substrate Z-Gly-Pro-AMC
Outline: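 Recombinant human FAP, 10 ng per reaction, in 50 mM Tris pH 7.5 with 1 M NaCl and 1 mg/ml BSA at 25° C; substrate Z-Gly-Pro-AMC, ≤0.1% DMSO. AMC fluorescence read at ex 380/em 460 nm; % signal-rate decrease vs no-inhibitor control, 8-point curves fitted to a four-parameter logistic for IC50.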

Sequence of DPP4 (P27487 whole entry): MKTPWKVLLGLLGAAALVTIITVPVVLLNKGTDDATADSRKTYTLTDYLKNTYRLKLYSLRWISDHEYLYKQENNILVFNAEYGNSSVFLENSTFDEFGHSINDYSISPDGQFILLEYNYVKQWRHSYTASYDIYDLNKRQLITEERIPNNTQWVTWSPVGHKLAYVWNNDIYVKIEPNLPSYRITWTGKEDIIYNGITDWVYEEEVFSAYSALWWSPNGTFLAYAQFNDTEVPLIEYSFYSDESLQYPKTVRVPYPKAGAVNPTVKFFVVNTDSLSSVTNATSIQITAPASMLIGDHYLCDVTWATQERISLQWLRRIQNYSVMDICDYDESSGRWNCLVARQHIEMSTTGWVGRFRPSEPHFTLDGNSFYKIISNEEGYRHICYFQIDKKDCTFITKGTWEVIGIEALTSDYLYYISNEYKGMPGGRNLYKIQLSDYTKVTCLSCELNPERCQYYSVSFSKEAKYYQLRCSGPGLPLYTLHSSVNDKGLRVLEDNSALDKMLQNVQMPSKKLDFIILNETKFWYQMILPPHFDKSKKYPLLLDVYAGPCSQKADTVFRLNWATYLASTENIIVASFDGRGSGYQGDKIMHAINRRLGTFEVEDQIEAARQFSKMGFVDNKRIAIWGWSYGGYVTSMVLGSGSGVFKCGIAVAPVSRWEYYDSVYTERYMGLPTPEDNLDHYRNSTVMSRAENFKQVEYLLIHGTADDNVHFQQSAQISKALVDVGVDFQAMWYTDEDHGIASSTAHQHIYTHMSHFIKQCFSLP

IC50 (Recombinant human FAP [1]) [nM] | IC50 (DPP4) [nM] | IC50 (recombinant human DPP7) [nM] | IC50 (recombinant human PREP) [nM] | IC50 (Recombinant human FAP [2]) [nM] | Structure (SMILES)
1.3 | 26300 | 3910 | 9150 |  | N#C[C@@H]1CCCN1C(=O)CN1CC[C@@H](Nc2ccc(C(F)(F)F)c3ncccc23)C1 [Example 201, (2S)-1-[2-[(3R)-3-[[8-(trifluoromethyl)-5-quinolyl]amino]pyrrolidin-1-yl]acetyl]pyrrolidine-2-carbonitrile]
1.6 | 63600 | 6080 |  | 1.3 | N#C[C@@H]1CCCN1C(=O)CN1CC[C@H](Nc2cccc3ncc(F)cc23)C1 [Example 234, (2S)-1-[2-[(3S)-3-[(3-fluoro-5-quinolyl)amino]pyrrolidin-1-yl]acetyl]pyrrolidine-2-carbonitrile]
4 | 16900 | 3240 |  | 2.6 | COc1ccc(N[C@H]2CCN(CC(=O)N3CCC[C@H]3C#N)C2)c2cccnc12 [Example 243, (2S)-1-[2-[(3S)-3-[(8-methoxy-5-quinolyl)amino]pyrrolidin-1-yl]acetyl]pyrrolidine-2-carbonitrile]
1 | 1210 | 74.3 |  |  | N#C[C@@H]1C[C@H](F)CN1C(=O)CN1CC[C@H](Nc2ccc(C(=O)Nc3ccccc3)c3ncccc23)C1 [Example 283, N-phenyl-5-[[(3S)-1-[2-oxo-2-[(2S,4S)-2-cyano-4-fluoro-pyrrolidin-1-yl]ethyl]pyrrolidin-3-yl]amino]quinoline-8-carboxamide]
1.2 | 7580 | 904 |  |  | N#C[C@@H]1CCCN1C(=O)CN1CC[C@H](Nc2ccc(C(=O)Nc3ccccc3)c3ncccc23)C1 [Example 287, N-phenyl-5-[[(3S)-1-[2-oxo-2-[(2S)-2-cyanopyrrolidin-1-yl]ethyl]pyrrolidin-3-yl]amino]quinoline-8-carboxamide]
0.6 | 439 | 16.6 |  |  | N#C[C@@H]1C[C@H](F)CN1C(=O)CN1CC[C@H](Nc2ccc(C(=O)Nc3ccccn3)c3ncccc23)C1 [Example 294, N-(2-pyridyl)-5-[[(3S)-1-[2-oxo-2-[(2S,4S)-2-cyano-4-fluoro-pyrrolidin-1-yl]ethyl]pyrrolidin-3-yl]amino]quinoline-8-carboxamide]
6.3 | 3290 |  |  | 2.8 | N#C[C@@H]1C[C@H](F)CN1C(=O)CN1CCC(Nc2ccc(F)c3ncccc23)CC1 [Example 330, (2S,4S)-4-fluoro-1-[2-[4-[(8-fluoro-5-quinolyl)amino]-1-piperidyl]acetyl]pyrrolidine-2-carbonitrile]
6.5 | 5110 |  |  | 3.8 | Cc1ccc(NC2CCN(CC(=O)N3C[C@@H](F)C[C@H]3C#N)CC2)c2cccnc12 [Example 331, (2S,4S)-4-fluoro-1-[2-[4-[(8-methyl-5-quinolyl)amino]-1-piperidyl]acetyl]pyrrolidine-2-carbonitrile]
6 | ≥ 100000 | 4610 |  |  | N#C[C@@H]1C[C@H](F)CN1C(=O)CN1CCC(Nc2ccnc3c(Cl)cccc23)CC1 [Example 344, (2S,4S)-1-[2-[4-[(8-chloro-4-quinolyl)amino]-1-piperidyl]acetyl]-4-fluoro-pyrrolidine-2-carbonitrile]
12.4 | 6610 | 178 | 1400 |  | N#C[C@@H]1C[C@H](F)CN1C(=O)CN1CCC(Nc2cc(C(F)(F)F)c3ncccc3c2)CC1 [Example 377, (2S,4S)-4-fluoro-1-[2-[4-[[8-(trifluoromethyl)-6-quinolyl]amino]-1-piperidyl]acetyl]pyrrolidine-2-carbonitrile]
6.5 | 5470 |  |  | 3.3 | N#Cc1ccc2c(OC3CCN(CC(=O)N4C[C@@H](F)C[C@H]4C#N)CC3)cccc2n1 [Example 417, 5-[[1-[2-oxo-2-[(2S,4S)-2-cyano-4-fluoro-pyrrolidin-1-yl]ethyl]-4-piperidyl]oxy]quinoline-2-carbonitrile]
6.9 | 37200 | 3970 |  |  | N#C[C@@H]1CCCN1C(=O)CN1CCC(Oc2cccc3ncc(F)cc23)CC1 [Example 429, (2S)-1-[2-[4-[(3-fluoro-5-quinolyl)oxy]-1-piperidyl]acetyl]pyrrolidine-2-carbonitrile]
12.2 | 19300 | 6340 |  |  | N#C[C@@H]1CCCN1C(=O)CN1CCC(Oc2ccc(Cl)c3ncccc23)CC1 [Example 431, (2S)-1-[2-[4-[(8-chloro-5-quinolyl)oxy]-1-piperidyl]acetyl]pyrrolidine-2-carbonitrile]
3.2 | 4830 | 6560 |  |  | N#C[C@@H]1C[C@H](F)CN1C(=O)CN1CCC(Oc2ccnc3c(F)cccc23)CC1 [Example 435, (2S,4S)-4-fluoro-1-[2-[4-[(8-fluoro-4-quinolyl)oxy]-1-piperidyl]acetyl]pyrrolidine-2-carbonitrile]

Structure (SMILES) | IC50 (Recombinant human FAP [1]) [nM] | IC50 (DPP4) [nM] | IC50 (recombinant human DPP7) [nM] | IC50 (recombinant human PREP) [nM] | IC50 (Recombinant human FAP [2]) [nM]
N#Cc1ccc(N[C@H]2CCN(CC(=O)N3C[C@@H](F)C[C@H]3C#N)C2)c2cccnc12 [Example 267, 5-[[(3S)-1-[2-oxo-2-[(2S,4S)-2-cyano-4-fluoro-pyrrolidin-1-yl]ethyl]pyrrolidin-3-yl]amino]quinoline-8-carbonitrile] | 1.5 | 2570 | 3160 | 835 | 
